# Measured values as given in patent US10092644B2, “Use of fluorinated cyclic dinucleotides as oral vaccine adjuvants” (BROCK UNIVERSITY, priority 2013, dated 2018).
# How the values were obtained:
# C. difficile flagellin = experiment: Oral immunization with C. difficile flagellin admixed with adjuvant; ELISA for flagellin-specific antibodies; format: in vivo, BALB/c mice; conditions: day 35
# [1] = test system: splenocytes stimulated by HPCE; conditions: mouse, in vivo, po
# [2] = test system: H. pylori cell-free sonicate extract (HPCE); parameters: species or system C57BL/6 mice; conditions: mouse, in vivo, po
# [3] = test system: recombinant PsaA protein of S. pneumoniae; experiment: Intranasal immunization of mice with PsaA admixed with adjuvant; ELISA for PsaA-specific IgA and IgG isotypes; format: in vivo, BALB/c mice
# Excerpt: Mice. Six to eight-week-old female BALB/c or C57BL/6 mice were purchased from Charles Rivers Laboratories (St. Constant, Quebec). The animals were housed under specific-pathogen-free conditions in a federally licensed small animal containment level 2 facility, and given free access to sterile water and certified mouse chow. The animals were maintained and used in accordance with the recommendations of the Canadian Council on Animal Care Guide to the Care and Use of Experimental Animals, and the experimental procedures were approved by the institutional animal care committee.
# (§1) Intranasal or oral immunization in mice. For intranasal immunization, mice were lightly anesthetized under isofluorane. On day 0, 14 and 21, groups of mice (n=5) were inoculated with 50 μl of various vaccine preparations or controls as detailed in Examples 1-5. For oral immunization, various vaccine preparations or controls in 0.2 ml volume were administered by gavage via an 18-gauge feeding needle.
# At day 28, blood and mucosal samples (fecal pellets or/and vaginal wash) were collected as described elsewhere (Patel G B, Zhou H, Ponce A, Chen W (2007). Mucosal and systemic immune responses by intranasal immunization using archaeal lipid-adjuvanted vaccines. Vaccine 25: 8622-8636.). In some experiments, nasal wash samples were also collected at the end of experiment. For both the vaginal and nasal wash, the volume of the lavage fluid recovered from each mouse was recorded. Since the recovery of lavage volumes among different mice in our study were very similar (about 90%), the small variation among individual samples was not adjusted. All samples were stored at −20° C. until assay.
# Vaginal wash samples were collected by slowly injecting and withdrawing (3-4 times) 50 μl PBS (pH 7.2) into the vagina of conscious mice, using a P100 pipette. The volume of the vaginal lavage fluid recovered from each mouse was recorded.
# Enzyme-linked immunosorbent assay (ELISA) for PsaA-specific IgA and IgG isotypes. Levels of PsaA-specific antibodies in serum and mucosal samples were measured by an enzyme-linked immunosorbent assay (ELISA) modified from a previously described procedure (Yan H, Kuo Lee R, Tram K, Qiu H, Zhang J, Patel G B, Chen W. 3′,5′-Cyclic diguanylic acid elicits mucosal immunity against bacterial infection. Biochemical and Biophysical Research Communications, 2009; 387(3):581-4.). Briefly, 96-well Immunolon 2^R microplates (Thermo Electron Corporation, Milford, Mass.) were coated with 0.5 μg PsaA/well in 100 μl of 0.015 M sodium carbonate and 0.035 M sodium bicarbonate buffer (pH 9.6) at 4° C. overnight. All the subsequent incubations were carried out at room temperature. The wells were blocked by incubation with 5% bovine serum in PBS for 1 h, and then rinsed three times with PBS-0.05% Tween 20. Duplicates of 100 μl pre-diluted samples were added to the wells. Sample dilutions were as follows: 1:2 for fecal extracts and nasal washes, 1:2000 for serum IgG1, 1:500 for serum IgG2a and 1:50 for serum IgA. After the plates were incubated for 3 h, alkaline phosphatase-conjugated goat antibodies specific for mouse IgA, IgG1 and IgG2a (all from Caltag Laboratories, Burlingame, Calif.) were added and incubated for 1 h. Color reactions were developed by the addition of p-nitrophenyl phosphate (pNPP) substrate (KPL, Inc., Gaithersburg, Md.), and optical density was measured at 405 nm with an automated ELISA plate reader (Multiskan Ascent, Thermo Labsystems, Vantaa, Finland). Pooled samples collected from mice that had been intranasally immunized with the PsaA+CT or from the naïve mice were used as positive or negative controls respectively.
# To determine if 2′-F-c-di-GMP can elicit mucosal immune responses to microbial (bacterial and viral) antigens, groups of BALB/c mice were intranasally (i.n.) immunized with 2 μg recombinant PsaA protein of S. pneumoniae admixed with 2.5 μg 2′-F-c-di-GMP, 2.5 μg c-di-GMP, or 10 μg c-di-GMP at day 0, 14 and 21. […]
# Listeria flagellin = experiment: Oral immunization with Listeria flagellin admixed with adjuvant; ELISA for flagellin-specific antibodies; format: in vivo, BALB/c mice; conditions: day 35
# S. pneumoniae = experiment: Mouse S. pneumoniae nasopharyngeal colonization model after intranasal immunization; format: in vivo, mice
# Procedure: as §1
# Intranasal challenge of mice with S. pneumoniae. Fresh inocula were prepared for each experiment from a frozen stock of S. pneumoniae (type 14). […] The actual inoculum concentrations were determined by plating 10-fold serial dilutions on chocolate agar. Inoculated mice were sacrificed 3 days later and the nasal cavity was lavaged with 0.5 ml lavage fluid and aliquots (100 μl) of 10-fold serial dilutions of the lavage fluids were cultured, in duplicates, on chocolate agar plates to quantify the number of viable organisms.
# Next, it was determined if the mucosal immune responses induced by the 2′-F-c-di-GMP adjuvanted vaccine are protective against mucosal infections in the well-established mouse S. pneumoniae colonization model. […] Mice were sacrificed 3 days after challenge, and the nasopharyngeal tract was lavaged and bacterial numbers in the nasal wash were determined.
# H. pylori SS1 = experiment: Mouse model of H. pylori gastric colonization after oral immunization; format: in vivo, mice
# [4] = test system: pneumococcal surface adhesion A (Psa); conditions: mice, intranasally, Psa together with c-di-GMP (Yan et al. 2009); cited from earlier work
# [5] = oral 30 μg C. difficile flagellin + 75 μg adjuvant
# [6] = i.n. 2 μg PsaA admixed with 2.5 μg adjuvant at day 0, 14 and 21, samples day 28, FIG. 1
# [7] = i.n. with 2 μg PsaA, comparator 2.5 μg or 10 μg c-di-GMP
# [8] = oral 50 μg Listeria flagellin + 75 μg adjuvant
compound,measurement,setting,value
2′-F-c-di-GMP,IgG1 response in the serum compared with sham-immunized mice,C. difficile flagellin; [5],substantially higher
same,IgG2a response in the serum compared with sham-immunized mice,C. difficile flagellin; [5],substantially higher
same,antigen-specific IgA response in feces compared with sham-immunized mice,C. difficile flagellin; [5],substantially higher
same,C. difficile flagellin-specific IgA in feces,"C. difficile flagellin; oral 30 μg C. difficile flagellin admixed with 75 μg adjuvant day 0, 14, 21, FIG. 6",substantial amount
same,IFN-γ produced by splenocytes compared to cells from CT-immunized mice,[1],even higher
same,IFN-γ produced by splenocytes compared to sham-immunized mice,[1],substantially higher
same,IL-2 produced by splenocytes compared to sham-immunized mice,[1],substantially higher
same,IL-17 produced by splenocytes compared to sham-immunized mice,[1],substantially higher
same,IgG2a response in the serum compared with sham-immunized mice,[2],substantially higher
same,antigen-specific IgA level in feces,[2],substantial amount
same,antigen-specific IgA level in serum,[2],substantial amount
same,antigen-specific IgA response in feces compared with sham-immunized mice,[2],substantially higher
same,antigen-specific serum IgG1 level,[2],substantial amount
same,antigen-specific serum IgG2a level,[2],substantial amount
same,PsaA-specific IgA in feces,[3]; [6],high level
same,PsaA-specific IgA in nasal wash,[3]; [6],high level
same,PsaA-specific IgA in serum,[3]; [6],high level
same,PsaA-specific serum IgG1 level,[3]; [6],high level
same,PsaA-specific serum IgG2a level,[3]; [6],high level
same,IgG2a response in the serum compared to parental c-di-GMP,[3]; [7],stronger
same,antigen-specific IgA response in feces compared to parental c-di-GMP,[3]; [7],stronger
same,antigen-specific IgA response in vaginal washings compared to parental c-di-GMP,[3]; [7],stronger
same,IgG1 response in the serum compared with sham-immunized mice,Listeria flagellin; [8],substantially higher
same,IgG2a response in the serum compared with sham-immunized mice,Listeria flagellin; [8],substantially higher
same,antigen-specific IgA response in feces compared with sham-immunized mice,Listeria flagellin; [8],substantially higher
same,Listeria flagellin-specific IgA in feces,"Listeria flagellin; oral 50 μg Listeria flagellin admixed with 75 μg adjuvant day 0, 14, 21, FIG. 6",small amount
same,magnitude of reduction of S. pneumoniae colonization relative to PsaA+CT immunized mice,"S. pneumoniae; PsaA+2′-F-c-di-GMP i.n., PsaA+CT data from Yan et al. 2009",comparable
same,nasopharyngeal colonization of S. pneumoniae compared to sham-immunized mice,"S. pneumoniae; i.n. immunization, i.n. challenge 4.55×10^6 CFU at day 35, nasal wash bacterial numbers 3 days after challenge, P<0.05 for adjuvanted group, FIG. 2",significantly reduced colonization
same,magnitude of reduction of H. pylori colonization relative to HPCE adjuvanted with CT,"H. pylori SS1; HPCE+2′-F-c-di-GMP vs HPCE+CT, oral",comparable
same,bacterial burdens in the gastric mucosa compared to sham (PBS)-immunized mice,"H. pylori SS1; both low or high doses of HPCE + 2′-F-c-di-GMP, oral",significantly reduced bacterial burdens
same,gastric colonization of H. pylori compared to sham-immunized mice,"H. pylori SS1; oral immunization, oral challenge 10^8 CFU H. pylori SS1 three times from day 35, stomach 6 weeks after first challenge, P<0.05 for adjuvanted group, FIG. 5",significantly reduced colonization
"Nc1nc2c(ncn2C2OC3COP(=O)(O)OC4C(COP(=O)(O)OC3C2O)OC(n2cnc3c(=O)[nH]c(N)nc32)C4O)c(=O)[nH]1 (centres unmarked) [c-di-GMP, 3′,5′-cyclic diguanylic acid]",antigen specific antibody response,[4],enhanced
